Results published in patent US20220008430A1, “METHODS OF TREATING SUBJECTS HAVING PLATELET DYSFUNCTION WITH IV MELOXICAM” (priority 2018, published 2022).
Like-named read-outs stand apart in the source and are kept apart here.

Key:
COX-2 / COX-1 = details: ratio of IC80 of COX-2 to IC80 of COX-1; Warner 1999; cited from earlier work
platelet function [1] = assay: PFA-100 closure time, ex vivo whole blood, CADP reagent cartridge; type: cell-based, human
Description: (§1) The PFA-100 device determines closure time by simulating platelet adhesion and aggregation following vascular injury.
(§2) Study subjects (n=13) had approximately 20 mL of whole blood collected in tubes containing 3.2% (0.105 M) buffered sodium citrate (1 part anticoagulant to 9 parts blood).
(§3) Assessment of platelet function: Platelet function was evaluated using the PFA-100 Platelet Function Analyzer (Siemens Healthcare Diagnostics, Deerfield, Ill.). […] Use of this device to measure the effect of drugs on platelet adhesion is well documented. The PFA-100 device determines a sample closure time by simulating the platelet adhesion and aggregation that occurs following vascular injury. Analysis was performed using both collagen with epinephrine (CEPI) and collagen with adenosine diphosphate (CADP) reagent cartridges. […] Whole blood aliquots were treated according to the test condition and incubated for approximately 10 minutes prior to analysis in the PFA-100. All blood samples were analyzed within 2.5 hours of the time of collection. PFA-100 closure time results were reported for each test condition and reagent cartridge. […] Samples outside this range were excluded from the primary analysis.
(§4) Statistical analysis: Treatment effect on CT was analyzed using an analysis of variance (ANOVA). […] Pairwise comparisons were performed; nominal P-values were reported without controlling for multiplicity. Subgroup analysis by gender was also performed. All analyses were performed separately for each reagent.

platelet function [2] = assay: PFA-100 closure time, ex vivo whole blood, CEPI reagent cartridge; type: cell-based, human
Description: as §1, §2, §3, §4

[3] = cited from earlier work
pain [4] = details: intravenous; Prescribing Information; cited from earlier work
platelet aggregation = details: healthy volunteers; 0.4 mg/kg; previous studies; cited from earlier work
pain [5] = assay: Time course of analgesic effect; type: in vivo, human; details: meloxicam administration as disclosed (IV)
[6] = cited from earlier work; remark: listed apart in the source
[7] = all eligible subjects (12 subjects), 2.5 μg/mL
[8] = all eligible subjects (12 subjects), 5 μg/mL

**Q.** For `CC(=O)Oc1ccccc1C(=O)O` [Aspirin, acetylsalicylic acid], which “COX-2/COX-1 IC80 ratio” value (COX-2 / COX-1) is on record?
**A.** 3.8

**Q.** With `CC(C)Cc1ccc(C(C)C(=O)O)cc1` (stereo not drawn) [Ibuprofen] as the compound, how does the “COX-2/COX-1 IC80 ratio” value (COX-2 / COX-1) read?
**A.** 2.6

**Q.** What does the source list for `O=C(c1ccccc1)c1ccc2n1CCC2C(=O)O` (stereo not drawn) [Ketorolac]?
**A.** LS mean closure time (platelet function [1]; [7]): 82.08 s; LS mean closure time (platelet function [1]; [8]): 86.36 s; difference in closure time vs untreated control (platelet function [1]; all tested concentrations): no statistically significant differences; LS mean closure time (platelet function [1]; final analysis set (8 subjects), 2.5 μg/mL in whole blood): 79.41 s; LS mean closure time (platelet function [1]; final analysis set (8 subjects), 2.5 μg/mL in whole blood, listed as ketorolac): 79.41 (5.31) seconds; LS mean closure time (platelet function [1]; final analysis set (8 subjects), 5 μg/mL in whole blood): 87.95 s; LS mean closure time (platelet function [1]; final analysis set (8 subjects), 5 μg/mL in whole blood, listed as ketorolac): 87.95 (5.66) seconds; LS mean closure time (platelet function [2]; [7]): 193.17 s; LS mean closure time (platelet function [2]; [8]): 191.58 s; LS mean closure time (platelet function [2]; final analysis set (8 subjects), 2.5 μg/mL): 180.87 s; LS mean closure time (platelet function [2]; final analysis set (8 subjects), 5 μg/mL): 143.38 s; prolongation in closure time vs untreated control (platelet function [2]; therapeutic (and for meloxicam IV supratherapeutic) concentrations): significant prolongations; peak concentration ([3]; following 15-mg IV dose): ~2.5 µg/mL; peak concentration ([3]; following 30-mg IV dose): ~5 µg/mL; time to onset of pain relief (pain [4]): up to 30 minutes; bleeding time (platelet aggregation): prolonged bleeding times; epinephrine-, adenosine-, and collagen-induced platelet aggregation (platelet aggregation): significant inhibition; COX-2/COX-1 IC80 ratio (COX-2 / COX-1): 294

**Q.** Which results are given for `Cc1cnc(NC(=O)C2=C(O)c3ccccc3S(=O)(=O)N2C)s1` [Meloxicam, 4-hydroxy-2-methyl-N-(5-methyl-2-thiazolyl)-2H-1,2-benzothiazine-3-carboxamide-1,1-dioxide]?
**A.** therapeutic window (pain [5]): at least 24 hours; water solubility [6]: poor water solubility

**Q.** With `COc1ccc2cc([C@H](C)C(=O)O)ccc2c1` [Naproxen] as the compound, how does the “COX-2/COX-1 IC80 ratio” value (COX-2 / COX-1) read?
**A.** 3

**Q.** For `CS(=O)(=O)c1ccc(C2=C(c3ccccc3)C(=O)OC2)cc1` [Rofecoxib], which “COX-2/COX-1 IC80 ratio” value (COX-2 / COX-1) is on record?
**A.** <0.05
